Experiment: Hydroxyapatite assay (hydroxyapatite adsorption chromatography, bone-targeting potential)
Assay type: physicochemical
Settings: K=(retention time-void time)/void, corrected using two reference compounds; TSK-Gel HA 1000 HPLC column; linear gradient 10 mM to 500 mM sodium phosphate, 0.15 N NaCl, pH 6.8
Description: Hydroxyapatite is the principal mineral component of bone. Hydroxyapatite adsorption chromatography is used as an assay to evaluate the bone-targeting potential of both individual bone-targeting moieties (“monomers”) and of pharmaceuticals incorporating bone-targeting groups.
Method: The rentention time of a test compound is measured using a linear gradient from 10 mM sodium phosphate, 0.15 N NaCl, pH=6.8 to 500 mM sodium phosphate, 0.15 N NaCl, […] on a TSK-Gel HA 1000 high pressure liquid chromatography column (7.5 mm×75 mm). The rentention time of the compound is expressed in terms of K=(retention time-void time)/void. This K value is corrected using two reference compounds to correct from inter-column and inter-system variation to obtain a K′ value.
Reference Compounds: K′ values were determined for known bone targeted compounds, the bisphosphonate, alendronate and tetracycline.

NCCCC(O)(P(=O)(O)O)P(=O)(O)O [Alendronate, alendronate]
K′ value: 3.7
